We go through one molecule from PMC7673680, “Small-molecule sequestration of amyloid-β as a drug discovery strategy for Alzheimer’s disease” (Science Advances, 2020).

The assay has as its target T1, amyloid-β 42 (Aβ42), monomeric (Homo sapiens, UniProt P05067).
T1 construct: gene APP; Aβ42, monomeric 42-residue peptide, N-terminally biotinylated for BLI
The assay is described as follows: biolayer interferometry (kon/koff global fit); supported by 2D HN-BESTCON NMR and dot-blot sequestration fit (Kd […]). It counts as binding. A general note: Biolayer interferometry detects binding as a change in optical thickness at a sensor tip.

T1 sequence (P05067 672-713): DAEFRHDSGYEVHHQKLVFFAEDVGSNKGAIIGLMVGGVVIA

Turning to `O=[N+]([O-])c1ccc(Nc2ccccc2-c2ccccc2)c2nonc12` [10074-G5, biphenyl-2-yl-(7-nitro-benzo[1,2,5]oxadiazol-4-yl)-amine], the affinity, expressed as Kd, was 6 µM.
